Columns and labels:
293T cells = experiment: In vitro SEAP expression via QuantiBlue assay, DNA nanoparticles; format: cell-based; conditions: 24 hours post-treatment
Description: To test the ability of these nanoparticles to express SEAP in vitro, 293T cells were treated with nanoparticles. Each well of a 96 well dish of 293 Ts was treated with 10 μL (approximately 0.25 μg) of each formulation product diluted into a final volume of 200 μL with a 1:1 Optimem:PBS mix. The nontreated wells had 200 μL of 50/50 PBS/OptiMEM. Twenty four hours post-treatment or transfection, conditioned media from each culture was collected. Media was analyzed using the QuantiBlue assay (InvivoGen). 180 μL QuantiBlue reagent was combined with 50 μL of media from wells. Readings were taken after 40 minutes by measuring absorbance at 650 nm as directed by the manufacturer's protocol. For the no treatment Negative Control, 50 μL of media from a well not treated with nanoparticles was added to 180 μL QuantiBlue Reagent. These samples were treated the same way as all other samples in all steps of the assay.
FIG. 11 illustrates in vitro SEAP expression of nanoparticle formulations with modified dendrimers used to treat 293T cells.

[1] = tested on: Influenza A virus (PR/8/34); experiment: Hemagglutinin Inhibition Assay (HAI) on vaccinated animal sera
Description: HAI tests were performed on vaccinated animal sera according to the standard recommended WHO protocol [World Health Organization. […] Sera were treated with receptor destroying enzyme (Denka Seiken Co. Ltd, Tokyo, Japan) at 37° C. overnight then heat inactivated for 30 minutes at 56° C. After cooling down to RT, those serum samples were mixed with 2 volume of 25% suspension of turkey red blood cells (RBC, Rockland Immunochemicals) and incubated at room temperature for 2 hours followed by centrifugation to remove RBC. The treated sera, now considered to be at a 1:10 dilution, were serially diluted and incubated with 4 HA units of inactivated Influenza A virus (PR/8/34, Virusys #IAV210) for 30 minutes at room temperature. An equal volume of 0.5% turkey RBC was added to each well and incubated for 30 minutes at room temperature.

Structure (SMILES) | in vitro SEAP expression (293T cells) | average HI titer ([1]; week 4, after prime vaccination, 5 μg nanoparticle vaccine, HA mRNA) | average HI titer ([1]; week 5, one week after boost immunization, 5 μg)
CCCCCCCCCCCCCCCCC(=O)NCCCN(C)CCCNC(=O)OCC(C)(COC(=O)NCCCN(C)CCCNC(=O)CCCCCCCCCCCCCCCC)C(=O)OCC(CC)(COC(=O)C(C)(COC(=O)NCCCN(C)CCCNC(=O)CCCCCCCCCCCCCCCC)COC(=O)NCCCN(C)CCCNC(=O)CCCCCCCCCCCCCCCC)COC(=O)C(C)(COC(=O)NCCCN(C)CCCNC(=O)CCCCCCCCCCCCCCCC)COC(=O)NCCCN(C)CCCNC(=O)CCCCCCCCCCCCCCCC [PE-Heptadecanoic] | resulted in SEAP expression | – | –
CCCCCCCC/C=C\CCCCCCCC(=O)NCCCN(C)CCCNC(=O)OCC(C)(COC(=O)NCCCN(C)CCCNC(=O)CCCCCCC/C=C\CCCCCCCC)C(=O)OCC(CC)(COC(=O)C(C)(COC(=O)NCCCN(C)CCCNC(=O)CCCCCCC/C=C\CCCCCCCC)COC(=O)NCCCN(C)CCCNC(=O)CCCCCCC/C=C\CCCCCCCC)COC(=O)C(C)(COC(=O)NCCCN(C)CCCNC(=O)CCCCCCC/C=C\CCCCCCCC)COC(=O)NCCCN(C)CCCNC(=O)CCCCCCC/C=C\CCCCCCCC [PE-Oleic] | resulted in SEAP expression | 40 | 192
